# Test system: C57BL/6N mice
# Assay: Feeding suppressant activity on a high-fat diet
# Assay type: in vivo
# Settings: male C57BL/6N mice, oral dose of 3 mg/kg; food intake 6 hours after initiation of high-fat diet feeding
# Experimental: Male C57BL/6N mice (7-12 weeks old, body weight: 17-25 g, Charles River Laboratories Japan Inc.) were individually housed and fed on a high-fat diet (fat content: 45 kcal %: Research Diets, Inc. D12451) for 1 week or longer for acclimatization. Based on the food intake during the period, the animals were equally assigned to experimental groups and fasted overnight. Then, a vehicle (0.5% methylcellulose) or each test compound (1 to 10 mg/kg) suspended in vehicle was orally administered (10 mL/kg) to each group. 30 minutes after administration, the animals were fed on a high-fat diet, and the food intake was measured 6 hours after initiation of feeding. The feeding suppressant activity of each test compound was calculated based on the equation shown below.
# Feeding suppressant activity(%)=[(Food intake of Vehicle group)−(Food intake of each test compound group)]/[(Food intake of Vehicle group)]×100
row,Structure (SMILES),Feeding suppressant activity [%]
1,"O=C(O)C[C@H]1CC[C@H](OC(=O)N2CCc3cc(NC(=O)Nc4ccccc4Cl)ccc3C2)CC1 [Example 2, trans-6-[3-(2-chloro-phenyl)-ureido]-3,4-dihydro-1H-isoquinoline-2-carboxylic acid 4-carboxymethyl-cyclohexyl ester]",70

# Molecular target: T1, DGAT1 enzyme (Homo sapiens, UniProt O75907)
# T1 construct: made in house
# T1 sequence (O75907 1-488): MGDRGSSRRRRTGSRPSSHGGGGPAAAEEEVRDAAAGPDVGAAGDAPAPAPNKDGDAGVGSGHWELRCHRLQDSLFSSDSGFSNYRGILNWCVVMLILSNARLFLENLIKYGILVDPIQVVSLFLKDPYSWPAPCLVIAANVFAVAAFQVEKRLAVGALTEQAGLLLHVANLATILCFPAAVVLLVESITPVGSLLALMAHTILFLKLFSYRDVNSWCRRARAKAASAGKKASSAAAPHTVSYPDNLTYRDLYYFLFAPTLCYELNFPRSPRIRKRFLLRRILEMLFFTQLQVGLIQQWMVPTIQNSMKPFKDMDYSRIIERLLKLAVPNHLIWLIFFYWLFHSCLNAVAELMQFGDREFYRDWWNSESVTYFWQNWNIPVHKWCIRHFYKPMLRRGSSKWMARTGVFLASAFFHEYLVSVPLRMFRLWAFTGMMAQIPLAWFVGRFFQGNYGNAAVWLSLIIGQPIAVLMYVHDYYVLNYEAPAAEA
# Assay: DGAT1 inhibitory activity test
# Assay type: biochemical
# Settings: test compound concentration of 0.05 μg/ml; [14C]-oleoyl-CoA, 23° C., 30 minutes; read-out: Inhibitory Rate
# Experimental: (1) Preparation of DGAT1 Enzyme
# DGAT1 enzyme was prepared and stored according to the method described in US2007/0249620.
# (2) DGAT1 Inhibitory Activity Test
# A reaction solution having the following composition was incubated at room temperature (23° C.) for 30 minutes: 175 mM Tris-HCl (pH 8.0), 8 mM MgCl2, 1 mg/ml BSA, 0.3 mM 1,2-dioleoyl-sn-glycerol (10-fold concentration of EtOH solution, 10% added), 10 μM [^14C]-oleoyl-CoA (approximately 50 mCi/mmol), 0.5% Triton X-100, the DGAT1 enzyme (10 μg) obtained in Test Example 1(1), and a test compound or vehicle (DMSO/MeOH, 7:3 solution, 5% added), 50 μl in total. A reaction stop solution […] consisting of isopropanol/1-heptane/water (80:20:2, v/v/v) was added to the reaction solution and stirred. Subsequently, water […] and 1-heptane (100 μl) were added thereto and stirred. The 1-heptane layer […] was spotted onto a TLC plate and developed with a developing solvent consisting of 1-hexane/diethyl ether/acetic acid (85:15:1, v/v/v). The radioactivity of the triglyceride fraction was quantified using BAS2500 Bio Image Analyzer (FUJIFILM) and compared with the control. The inhibitory activity of the test compound was calculated according to the formula shown below. In this context, the radioactivity at no reaction (0 minute incubation) was used as background.
# Inhibitory Rate=100−[(Radioactivity of sample supplemented with test compound)−(Background)]/[(Radioactivity of control)−(Background)]×100
row,Structure (SMILES),inhibition at 0.05 µg/mL [%]
1,"Cc1cccc(NC(=O)Nc2ccc3c(c2)CCN(C(=O)O[C@H]2CC[C@H](CC(=O)O)CC2)C3)c1Cl [Example 27, trans-6-[3-(2-chloro-3-methyl-phenyl)-ureido]-3,4-dihydro-1H-isoquinoline-2-carboxylic acid 4-carboxymethyl-cyclohexyl ester]",≥ 50
2,"O=C(O)C[C@H]1CC[C@H](OC(=O)N2CCc3cc(NC(=O)Nc4ccc(Cl)cc4C(F)(F)F)ccc3C2)CC1 [Example 28, trans-6-[3-(4-chloro-2-trifluoromethyl-phenyl)-ureido]-3,4-dihydro-1H-isoquinoline-2-carboxylic acid 4-carboxymethyl-cyclohexyl ester]",≥ 50
3,"O=C(O)C[C@H]1CC[C@H](OC(=O)N2CCc3cc(NC(=O)Nc4ccc(C(F)(F)F)cc4Cl)ccc3C2)CC1 [Example 29, trans-6-[3-(2-chloro-4-trifluoromethyl-phenyl)-ureido]-3,4-dihydro-1H-isoquinoline-2-carboxylic acid 4-carboxymethyl-cyclohexyl ester]",≥ 50
4,"O=C(O)C[C@H]1CC[C@H](OC(=O)N2CCc3cc(NC(=O)Nc4cc(F)cc(F)c4)ccc3C2)CC1 [Example 31, trans-6-[3-(3,5-difluoro-phenyl)-ureido]-3,4-dihydro-1H-isoquinoline-2-carboxylic acid 4-carboxymethyl-cyclohexyl ester]",≥ 50
5,"Cc1cc(C)cc(NC(=O)Nc2ccc3c(c2)CCN(C(=O)O[C@H]2CC[C@H](CC(=O)O)CC2)C3)c1 [Example 33, trans-6-[3-(3,5-dimethyl-phenyl)-ureido]-3,4-dihydro-1H-isoquinoline-2-carboxylic acid 4-carboxymethyl-cyclohexyl ester]",≥ 50
6,"Cc1cccc(NC(=O)Nc2ccc3c(c2)CCN(C(=O)O[C@H]2CC[C@H](CC(=O)O)CC2)C3)c1C [Example 35, trans-6-[3-(2,3-dimethyl-phenyl)-ureido]-3,4-dihydro-1H-isoquinoline-2-carboxylic acid 4-carboxymethyl-cyclohexyl ester]",≥ 50
7,"COc1cc(NC(=O)Nc2ccc3c(c2)CCN(C(=O)O[C@H]2CC[C@H](CC(=O)O)CC2)C3)cc(OC)c1 [Example 39, trans-6-[3-(3,5-dimethoxy-phenyl)-ureido]-3,4-dihydro-1H-isoquinoline-2-carboxylic acid 4-carboxymethyl-cyclohexyl ester]",≥ 50
8,"COc1cccc(NC(=O)Nc2ccc3c(c2)CCN(C(=O)O[C@H]2CC[C@H](CC(=O)O)CC2)C3)c1F [Example 42, trans-6-[3-(2-fluoro-3-methoxy-phenyl)-ureido]-3,4-dihydro-1H-isoquinoline-2-carboxylic acid 4-carboxymethyl-cyclohexyl ester]",≥ 50
9,"COc1ccc(NC(=O)Nc2ccc3c(c2)CCN(C(=O)O[C@H]2CC[C@H](CC(=O)O)CC2)C3)cc1OC [Example 44, trans-6-[3-(3,4-dimethoxy-phenyl)-ureido]-3,4-dihydro-1H-isoquinoline-2-carboxylic acid 4-carboxymethyl-cyclohexyl ester]",≥ 50

# Other lines, results leading:
row,inhibition at 0.05 µg/mL [%],Structure (SMILES)
1,≥ 50,"O=C(O)C[C@H]1CC[C@H](OC(=O)N2CCc3cc(NC(=O)Nc4ccccc4Cl)ccc3C2)CC1 [Example 2, trans-6-[3-(2-chloro-phenyl)-ureido]-3,4-dihydro-1H-isoquinoline-2-carboxylic acid 4-carboxymethyl-cyclohexyl ester]"
2,≥ 50,Cc1cc(Cl)ccc1NC(=O)Nc1ccc2c(c1)CCN(C(=O)O[C@H]1CC[C@H](CC(=O)O)CC1)C2 [Example 26]
3,≥ 50,"Cc1ccc(NC(=O)Nc2ccc3c(c2)CCN(C(=O)O[C@H]2CC[C@H](CC(=O)O)CC2)C3)cc1F [Example 30, trans-6-[3-(3-fluoro-4-methyl-phenyl)-ureido]-3,4-dihydro-1H-isoquinoline-2-carboxylic acid 4-carboxymethyl-cyclohexyl ester]"
4,≥ 50,"O=C(O)C[C@H]1CC[C@H](OC(=O)N2CCc3cc(NC(=O)Nc4ccc(F)c(Cl)c4)ccc3C2)CC1 [Example 32, trans-6-[3-(3-chloro-4-fluoro-phenyl)-ureido]-3,4-dihydro-1H-isoquinoline-2-carboxylic acid 4-carboxymethyl-cyclohexyl ester]"
5,≥ 50,"Cc1ccc(NC(=O)Nc2ccc3c(c2)CCN(C(=O)O[C@H]2CC[C@H](CC(=O)O)CC2)C3)cc1Cl [Example 34, trans-6-[3-(3-chloro-4-methyl-phenyl)-ureido]-3,4-dihydro-1H-isoquinoline-2-carboxylic acid 4-carboxymethyl-cyclohexyl ester]"
6,≥ 50,"Cc1c(Cl)cccc1NC(=O)Nc1ccc2c(c1)CCN(C(=O)O[C@H]1CC[C@H](CC(=O)O)CC1)C2 [Example 36, trans-6-[3-(3-chloro-2-methyl-phenyl)-ureido]-3,4-dihydro-1H-isoquinoline-2-carboxylic acid 4-carboxymethyl-cyclohexyl ester]"
7,≥ 50,"O=C(O)C[C@H]1CC[C@H](OC(=O)N2CCc3cc(NC(=O)Nc4cccc(Cl)c4Cl)ccc3C2)CC1 [Example 37, trans-6-[3-(2,3-dichloro-phenyl)-ureido]-3,4-dihydro-1H-isoquinoline-2-carboxylic acid 4-carboxymethyl-cyclohexyl ester]"
8,≥ 50,"Cc1cc(NC(=O)Nc2ccc3c(c2)CCN(C(=O)O[C@H]2CC[C@H](CC(=O)O)CC2)C3)ccc1F [Example 38, trans-6-[3-(4-fluoro-3-methyl-phenyl)-ureido]-3,4-dihydro-1H-isoquinoline-2-carboxylic acid 4-carboxymethyl-cyclohexyl ester]"
9,≥ 50,"O=C(O)C[C@H]1CC[C@H](OC(=O)N2CCc3cc(NC(=O)Nc4ccc(Cl)c(Cl)c4)ccc3C2)CC1 [Example 40, trans-6-[3-(3,4-dichloro-phenyl)-ureido]-3,4-dihydro-1H-isoquinoline-2-carboxylic acid 4-carboxymethyl-cyclohexyl ester]"
10,≥ 50,"COc1ccc(NC(=O)Nc2ccc3c(c2)CCN(C(=O)O[C@H]2CC[C@H](CC(=O)O)CC2)C3)cc1Cl [Example 41, trans-6-[3-(3-chloro-4-methoxy-phenyl)-ureido]-3,4-dihydro-1H-isoquinoline-2-carboxylic acid 4-carboxymethyl-cyclohexyl ester]"
11,≥ 50,"O=C(O)C[C@H]1CC[C@H](OC(=O)N2CCc3cc(NC(=O)Nc4cc(Cl)cc(Cl)c4)ccc3C2)CC1 [Example 43, trans-6-[3-(3,5-dichloro-phenyl)-ureido]-3,4-dihydro-1H-isoquinoline-2-carboxylic acid 4-carboxymethyl-cyclohexyl ester]"
12,≥ 50,"COc1ccc(NC(=O)Nc2ccc3c(c2)CCN(C(=O)O[C@H]2CC[C@H](CC(=O)O)CC2)C3)cc1F [Example 45, trans-6-[3-(3-fluoro-4-methoxy-phenyl)-ureido]-3,4-dihydro-1H-isoquinoline-2-carboxylic acid 4-carboxymethyl-cyclohexyl ester]"
13,≥ 50,"O=C(O)C[C@H]1CC[C@H](OC(=O)N2CCc3cc(NC(=O)Nc4cccc(Cl)c4)ccc3C2)CC1 [Example 46, trans-6-[3-(3-chloro-phenyl)-ureido]-3,4-dihydro-1H-isoquinoline-2-carboxylic acid 4-carboxymethyl-cyclohexyl ester]"

# Source: patent publication US20120202847A1, “Novel Tetrahydroisoquinoline Compounds” (priority 2009, published 2012)
